Patent US10265383B2, “Treatment of radiation injury using ghrelin” (priority 2014, dated 2019)
Where no end group is shown, it is not given here. The star is where a group is joined. Octanoyl = CCCCCCCC(=O)*

Key:
[1] = tested on: intestinal crypt apoptosis; test: Intestinal TUNEL staining after WBI; type: in vivo, rat; settings: jejunum, Day 7 after 10 Gy WBI; vehicle increased by 638% from sham
Protocol: (§1) Animal model of whole body irradiation. Rats were exposed to whole body irradiation (WBI) of 10 Gray (Gy) using a Gammacell® 1000 Irradiator (Atomic Energy of Canada Ltd) [radiation source: Cesium-137 (^137Cs)] delivered at a dose rate of about 2.5 GY/min. The animals were sedated with intra-peritoneal pentobarbital (40 mg/kg BW) prior to irradiation. During radiation, the container rotated continuously in front of the radiation source for even exposure. The animals were then returned to their cages, and food and water were provided.
(§2) Blood and Tissue Collection after WBI. Rats exposed to 10 Gy WBI were treated with 20 nmol/rat human ghrelin once a day for 6 days starting at 24 h after radiation. At the 7th day, rats were euthanized, and blood, liver and the small intestine were removed under sterile conditions. The blood was allowed to clot and following centrifugation, the serum was transferred into pyrogenic free sterile tubes, and stored at −80° C. until further analysis. […]
TUNEL staining. The presence of apoptotic cells in the gut sections was assessed at the 7th day following WBI using a terminal deoxynucleotide transferase dUTP nick-end labeling (TUNEL) staining kit (Roche Diagnostics, Indianapolis, Ind.). […] TUNEL-positive cells in crypt were counted in 10 fields/section under a fluorescence microscope (200×), and the number of cells/crypt are shown.

Liver 16S rRNA = test: Bacterial translocation, liver 16S rRNA real time PCR; type: in vivo; settings: Day 7 after 10 Gy WBI; 20 nmol/rat for 6 days from 24 h
Protocol: as §1
(§3) Blood and Tissue Collection after WBI. Rats exposed to 10 Gy WBI were treated with 20 nmol/rat human ghrelin once a day for 6 days starting at 24 h after radiation. […]
DNA isolation and total bacteria quantification. […] Bacterial quantification was performed using 16S rRNA gene-targeted primer, forward: 5′-AAC GCG AAG AAC CTT AC-3′ (SEQ ID NO:2) and reverse: 5′-CGG TGT GTA CAA GAC CC-3′ (SEQ ID NO:3). […] The PCR conditions for total bacterial quantification were 95° C. for 1 min and 40 cycles of 95° C. for 20 sec and 60° C. for 1 min. […] Serially diluted genomic DNA of bacterial isolates was used as real time PCR control for bacterial quantification. A standard curve was generated from the bacterial DNA control and we consistently detected between 100 ng to 0.1 pg E. coli DNA. Bacterial counts were expressed as ng/mg liver tissue.

serum endotoxin = test: Serum endotoxin levels (LAL assay); type: in vivo; settings: Day 7 after 10 Gy WBI; 20 nmol/rat for 6 days from 24 h
Protocol: as §1, §2
Serum endotoxin levels. Bacterial endotoxin levels in the serum were determined by the endpoint Chromogenic Limulus Amebocyte Lysate (LAL) assay (QC-1000, Lonza, Walkervilles, Md. USA) and expressed in EU/ml. Samples were analyzed according to manufacturer's instruction. Endotoxin levels which are ≥0.1EU/ml can be measured using this assay.

rat ileum = test: Gut permeability, ex-vivo isolated everted ileal sac (FD4 clearance); type: in vivo; settings: Day 7 after 10 Gy WBI, 20 nmol/rat for 6 days from 24 h
Protocol: as §1, §3
Gut Permeability. Small intestinal mucosal barrier function was assessed by using the ex-vivo isolated everted ileal sac as originally described by Wattanasirichaigoon et al. in 1999 [26] and used by others. […] The length and the diameter of the gut sac were then measured. […] Fluorescence measurements were made with a CYTOFLUOR 2 fluorescence plate reader (PerSeptive Biosystems, Framingham, Mass.) at an excitation wavelength of 480 nm and an emission wavelength of 520 nm. Gut permeability was expressed as the mucosal-to-serosal clearance of FD4 as described in detail by Wattanasirichaigoon et al.. […]

Substance: ghrelin (GSS(Octanoyl)FLSPEHQRVQQRKESKKPPAKLQPR; listed as Homo sapiens) [human ghrelin]
- apoptotic (TUNEL positive) cells/crypt, reduction [1]: 62%
- liver 16S rRNA gene (bacterial counts), reduction from Vehicle (Liver 16S rRNA): 61%
- serum endotoxin levels, decrease (serum endotoxin): 42%
- gut permeability, reduction from Vehicle (rat ileum): 38%
